Assay: in vitro
Conditions: human, hela cells, % viability

CCOc1cc(S(=O)(=O)NCc2ccccn2)ccc1Cl [CBK266817]
viability at 28.5 h, 10 µM: 99.2%

CCCNC(CC(=O)Nc1ccccc1)C(=O)O (stereo not drawn) [CBK266819]
viability at 28.5 h, 10 µM: 95.3%

Cc1cccc(NC(=O)C(CC(=O)O)NCc2ccccc2)c1 (stereo not drawn) [CBK266821]
viability at 28.5 h, 10 µM: 87.3%

Cc1c(Cl)cccc1NC(=S)NNC(=O)C(C)Oc1ccc(F)cc1F (stereo not drawn) [CBK266823]
viability at 28.5 h, 10 µM: 97.8%

Nc1ccccc1-c1ccccc1NC(=O)C(=O)O [CBK266824]
viability at 28.5 h, 10 µM: 110%

CCN1CCN(C(=O)c2ccccc2N(Cc2ccccc2)S(=O)(=O)c2ccc(C)cc2)CC1 [CBK266827]
viability at 28.5 h, 10 µM: 91.6%

CS(=O)(=O)N(CC(=O)Nc1ccc(S(=O)(=O)N2CCCCCC2)cc1)c1ccccc1F [CBK266829]
viability at 28.5 h, 10 µM: 92.9%

O=C(CC(NC1CCCC1)C(=O)O)Nc1cccc(Cl)c1 (stereo not drawn) [CBK266831]
viability at 28.5 h, 10 µM: 105%

COc1ccc(-n2c(S)nnc2-c2cccs2)cc1 [CBK266832]
viability at 28.5 h, 10 µM: 103%

COc1ccc(CCNC(=O)c2ccccc2N(C)S(C)(=O)=O)cc1 [CBK266833]
viability at 28.5 h, 10 µM: 104%

CSc1ccccc1NC(=O)CN(c1ccc(F)cc1)S(=O)(=O)c1ccc2c(c1)OCCO2 [CBK266836]
viability at 28.5 h, 10 µM: 101%

Cn1c(=O)c2ncn(CC(=O)Nc3cccc(C(=O)O)c3)c2n(C)c1=O [CBK266838]
viability at 28.5 h, 10 µM: 98.4%

O=c1[nH]c(/C=C\c2cccc(OCCOc3ccccc3)c2)c([N+](=O)[O-])c(=O)[nH]1 [CBK266840]
viability at 28.5 h, 10 µM: 105%

COc1nc(-c2ccccc2)ccc1-c1noc(COc2ccccc2)n1 [CBK266841]
viability at 28.5 h, 10 µM: 91.8%

O=C(NNC(=S)NCC1CCCO1)c1cccnc1 (stereo not drawn) [CBK266842]
viability at 28.5 h, 10 µM: 97.5%

Cc1cccc(OCCSc2nc3c(N)ncn(Cc4ccccc4)c-3n2)c1 [CBK266843]
viability at 28.5 h, 10 µM: 84.1%

Cc1cc(C)c(S(=O)(=O)N2CCC(C(=O)NNC(=S)NC3CCCC3)CC2)c(C)c1 [CBK266844]
viability at 28.5 h, 10 µM: 98.4%

O=C(CCc1ccc(S(=O)(=O)NC2CCCCC2)cc1)Nc1ccc2c(c1)OCCO2 [CBK266845]
viability at 28.5 h, 10 µM: 95.2%

COC(=O)c1c(NC(=S)Nc2cn(C)nc2C(N)=O)sc2c1CCCCC2 [CBK266849]
viability at 28.5 h, 10 µM: 93.4%

CC(Oc1ccc2c(c1)OCO2)C(=O)NNC(=O)Nc1cccc(Cl)c1Cl (stereo not drawn) [CBK266852]
viability at 28.5 h, 10 µM: 86.5%

Cn1c2ccccc2n2c(SCc3nc4ccc([N+](=O)[O-])cc4[nH]3)nnc12 [CBK266853]
viability at 28.5 h, 10 µM: 88.6%

COc1cc([N+](=O)[O-])ccc1NC(=O)NCc1ccco1 [CBK266855]
viability at 28.5 h, 10 µM: 101%

O=C(COc1ccc(F)cc1F)NNC(=S)NC1CCCCC1 [CBK266859]
viability at 28.5 h, 10 µM: 82.2%

COC(=O)c1ccccc1NC(=O)N1CCN(S(=O)(=O)c2ccc(Cl)cc2)CC1 [CBK266860]
viability at 28.5 h, 10 µM: 88%

CC(C)c1ccc(S(=O)(=O)Nc2ccc(O)c(Sc3nc[nH]n3)c2)cc1 [CBK266861]
viability at 28.5 h, 10 µM: 90.8%

COC(=O)c1c(NC(=S)Nc2ccc(Br)cn2)sc2c1CCC2 [CBK266862]
viability at 28.5 h, 10 µM: 92.9%

COc1cc([N+](=O)[O-])ccc1NC(=S)NNS(=O)(=O)c1cc(Cl)c(Cl)cc1Cl [CBK266863]
viability at 28.5 h, 10 µM: 96.2%

CC(NS(=O)(=O)c1ccc(CCC(=O)N2CCN(C)CC2)cc1)c1ccccc1 (stereo not drawn) [CBK266868]
viability at 28.5 h, 10 µM: 91.7%

Cc1nnc(N2C(=O)c3oc4ccc(Cl)cc4c(=O)c3C2c2cccc(OCc3ccccc3)c2)s1 (stereo not drawn) [CBK266870]
viability at 28.5 h, 10 µM: 95%

O=C(NNS(=O)(=O)c1ccc([N+](=O)[O-])cc1)Nc1cccc(C(F)(F)F)c1 [CBK266871]
viability at 28.5 h, 10 µM: 105%

COc1ccc(N(C(C)C(=O)Nc2ccc(Cl)c(Cl)c2)S(C)(=O)=O)cc1 (stereo not drawn) [CBK266872]
viability at 28.5 h, 10 µM: 114%

CCOc1ccccc1NC(=O)CN(C)S(=O)(=O)c1ccc2ccccc2c1 [CBK266874]
viability at 28.5 h, 10 µM: 101%

Cn1c(=O)c2ncn(CC(=O)Nc3ccc(N4CCN(Cc5ccccc5)CC4)cc3)c2n(C)c1=O [CBK266875]
viability at 28.5 h, 10 µM: 99.7%

Cc1nnc(SCC(=O)NNC(=O)c2cccs2)[nH]1 [CBK266879]
viability at 28.5 h, 10 µM: 93.7%

NS(=O)(=O)c1ccc(N/C(S)=N\c2cccc(C(=O)O)c2)cc1 [CBK266880]
viability at 28.5 h, 10 µM: 103%

COc1ccc(CCNC(=S)NN2CCN(C)CC2)cc1OC [CBK266884]
viability at 28.5 h, 10 µM: 93.2%

COC(=O)c1c(NC(=S)NCCn2cc(Br)cn2)sc2c1CCC(C)C2 (stereo not drawn) [CBK266886]
viability at 28.5 h, 10 µM: 89.8%

COC(=O)c1c(NC(=S)Nc2ccn(C)n2)sc2c1CCCCC2 [CBK266888]
viability at 28.5 h, 10 µM: 106%

C=CCNC(CC(=O)Nc1ccc(C)c(Cl)c1)C(=O)O (stereo not drawn) [CBK266892]
viability at 28.5 h, 10 µM: 92.8%

CN(c1ccc(C(=O)Nc2ccc(S(=O)(=O)N3CCCC3)cc2)cc1)S(=O)(=O)c1ccccc1 [CBK266896]
viability at 28.5 h, 10 µM: 102%

COc1ccc(CCNC(=S)N2CCN(c3ccccn3)CC2)cc1OC [CBK266897]
viability at 28.5 h, 10 µM: 94.5%

COc1ccc(S(=O)(=O)N2CCN(C(=S)Nc3ccc(S(N)(=O)=O)cc3)CC2)cc1 [CBK266898]
viability at 28.5 h, 10 µM: 92.6%

Cc1ccc2oc(-c3cc(NC(=O)c4nc[nH]n4)ccc3O)nc2c1 [CBK266900]
viability at 28.5 h, 10 µM: 101%

O=C(CCC(=O)c1ccc(F)cc1)Nc1cccnc1 [CBK266901]
viability at 28.5 h, 10 µM: 89.4%

Cc1ccc(C)c(C(=O)CCC(=O)Nc2cccnc2)c1 [CBK266902]
viability at 28.5 h, 10 µM: 95.8%

COC(=O)c1c(NC(=S)NCCn2cc(Br)cn2)sc2c1CCC2 [CBK266905]
viability at 28.5 h, 10 µM: 98.2%

O=C(O)c1ccc(CNC(=S)NCC2CCCO2)cc1 (stereo not drawn) [CBK266908]
viability at 28.5 h, 10 µM: 98.2%

O=C(Oc1ccc(N(C(=O)c2ccncc2)S(=O)(=O)c2cccc3cccnc23)c2ccccc12)c1ccncc1 [CBK266915]
viability at 28.5 h, 10 µM: 79.5%

COc1ccc(CCNC(=S)N2CCN(S(C)(=O)=O)CC2)cc1OC [CBK266917]
viability at 28.5 h, 10 µM: 115%

CSc1ccccc1NC(=O)Cn1c(-c2nonc2N)nc2ccccc21 [CBK266919]
viability at 28.5 h, 10 µM: 90%

CC(Oc1ccc2c(c1)OCO2)C(=O)NNC(=O)Nc1cccc(C(F)(F)F)c1 (stereo not drawn) [CBK266922]
viability at 28.5 h, 10 µM: 87.7%

Cc1cccc(NC(=O)CC(C(=O)O)N2CCOCC2)c1 (stereo not drawn) [CBK266925]
viability at 28.5 h, 10 µM: 96.3%

CCOC(=O)c1cnc(Nc2nc3ccccc3o2)nc1CN1CCN(c2ccccc2)CC1 [CBK266927]
viability at 28.5 h, 10 µM: 93.1%

CC(NS(=O)(=O)c1ccccc1)C(=O)Nc1ccc(S(N)(=O)=O)cc1 (stereo not drawn) [CBK266929]
viability at 28.5 h, 10 µM: 110%

COc1ccc(S(=O)(=O)NCCO)cc1-c1nnc2c3ccccc3c(C)nn12 [CBK266933]
viability at 28.5 h, 10 µM: 91.9%

Cc1ccc([N+](=O)[O-])cc1S(=O)(=O)Nc1ccc(O)c(Sc2nc3ccccc3s2)c1 [CBK266936]
viability at 28.5 h, 10 µM: 97.6%

Cc1ccccc1NC(=O)Cn1c(=O)n(CC(=O)Nc2ccccc2C)c2ccccc21 [CBK266938]
viability at 28.5 h, 10 µM: 101%

CNS(=O)(=O)c1ccc(NC(=O)Nc2ccc([N+](=O)[O-])cc2OC)cc1 [CBK266939]
viability at 28.5 h, 10 µM: 93.1%

Cc1ccc(C(C)C)c(OCCSc2nc3c(N)ncnc3[nH]2)c1 [CBK266941]
viability at 28.5 h, 10 µM: 94.3%

COC(=O)c1c(NC(=S)Nn2cnnc2)sc2c1CCC(C)C2 (stereo not drawn) [CBK266942]
viability at 28.5 h, 10 µM: 91.6%

COC(=O)c1c(NC(=S)NCc2cccs2)sc(C)c1-c1ccccc1 [CBK266943]
viability at 28.5 h, 10 µM: 97%

CCOc1ccc(NC(=O)Nc2ccc(CC(=O)O)cc2)cc1 [CBK266945]
viability at 28.5 h, 10 µM: 112%

CN(CC(=O)N1CCOCC1)S(=O)(=O)c1ccc2ccccc2c1 [CBK266946]
viability at 28.5 h, 10 µM: 98.5%

COCCCNC(=S)Nc1ccc(N2CCOCC2)c2nonc12 [CBK266947]
viability at 28.5 h, 10 µM: 88.8%

Oc1ccc(-c2n[nH]cc2-c2cnn(-c3ccccc3)c2)c(O)c1O [CBK266948]
viability at 28.5 h, 10 µM: 104%

CN1CCN(c2nc(NCCNc3ccc([N+](=O)[O-])cc3)c3ccccc3n2)CC1 [CBK266949]
viability at 28.5 h, 10 µM: 77.5%

CCn1cc(C(C)NC(=S)Nc2ccc(OC)cc2OC)c(C)n1 (stereo not drawn) [CBK266950]
viability at 28.5 h, 10 µM: 90%

CCOC(=O)c1c(NC(=S)NCc2ccccn2)sc2c1CCCCC2 [CBK266954]
viability at 28.5 h, 10 µM: 106%

O=C(O)CC(NCc1ccccc1)C(=O)Nc1cccc(F)c1 (stereo not drawn) [CBK266956]
viability at 28.5 h, 10 µM: 92.3%

Cc1cnn(CCCNC(=S)Nc2ccc(S(N)(=O)=O)cc2)c1 [CBK266957]
viability at 28.5 h, 10 µM: 90.7%

COc1ccc(Cl)cc1NC(=O)Nc1ccc(C(=O)N2CCOCC2)cc1 [CBK266958]
viability at 28.5 h, 10 µM: 87.1%

CN(C)CCNC(=O)C(=O)Nc1ccc(Cl)cc1 [CBK266965]
viability at 28.5 h, 10 µM: 107%

CCC(C)c1ccc(NC(S)=NCc2ccccn2)cc1 (stereo not drawn) [CBK266966]
viability at 28.5 h, 10 µM: 89.2%

Cc1cccc(C)c1OCC(=O)Nc1ccc(S(=O)(=O)N2CCOCC2)cc1 [CBK266967]
viability at 28.5 h, 10 µM: 94.1%

Cc1ccccc1NC(=O)CC(C(=O)O)N1CCOCC1 (stereo not drawn) [CBK266969]
viability at 28.5 h, 10 µM: 113%

O=C(O)C1CCCN1S(=O)(=O)c1ccc2[nH]c(=O)c(=O)[nH]c2c1 (stereo not drawn) [CBK266971]
viability at 28.5 h, 10 µM: 88.9%

NS(=O)(=O)c1ccc(NC(=S)NNC(=O)c2ccc(Br)o2)cc1 [CBK266972]
viability at 28.5 h, 10 µM: 95.8%

CC(C)(C)NS(=O)(=O)c1ccc(CCC(=O)Nc2ccc(F)c(Cl)c2)cc1 [CBK266974]
viability at 28.5 h, 10 µM: 89.9%

COc1ccc(CNC(=S)Nc2cccc(C(F)(F)F)c2)cc1OC [CBK266977]
viability at 28.5 h, 10 µM: 101%

CCNS(=O)(=O)c1ccc(NC(=S)Nc2ccc(S(N)(=O)=O)cc2)cc1 [CBK266978]
viability at 28.5 h, 10 µM: 99.5%

c1ccc2c(c1)nc(-c1cscn1)n2Cc1ccc(-c2nnn[nH]2)cc1 [CBK266979]
viability at 28.5 h, 10 µM: 96.6%

O=C(O)CNS(=O)(=O)c1ccc(Cl)c(Cl)c1 [CBK266981]
viability at 28.5 h, 10 µM: 86.2%

Fc1ccc(NC(=S)NNC(=S)Nc2cccc3ccccc23)c(F)c1 [CBK266982]
viability at 28.5 h, 10 µM: 89.8%

COc1ccc(C(C)C)cc1S(=O)(=O)NCCc1c(C)[nH]c2c(Cl)cccc12 [CBK266983]
viability at 28.5 h, 10 µM: 94.5%

CC(NS(=O)(=O)c1ccc(Cl)cc1)C(=O)Nc1ccccc1Sc1ccccc1 (stereo not drawn) [CBK266984]
viability at 28.5 h, 10 µM: 98.4%

Cc1c(C(C)NC(=O)Nc2ccc(F)cc2F)cnn1C (stereo not drawn) [CBK266986]
viability at 28.5 h, 10 µM: 95.1%

Nn1c(CSc2ccccn2)nnc1CSc1ccccn1 [CBK266987]
viability at 28.5 h, 10 µM: 90.8%

Reference: paper PMC12040169 (PLOS Biology, 2025)
